{
  "source": "patent US7186545B2",
  "about": "“Probiotic strains from Lactobacillus salivarius and antimicrobial agents obtained therefrom” (Enterprise Ireland, priority 1997, dated 2007)",
  "data": [
    {"system": "Lactobacillus isolates", "assay": "Antibiotic disc susceptibility assay", "settings": "sensitive if zone of 1 mm or greater", "protocol": "Antibiotic sensitivity profiles of the isolates were determined using the ‘disc susceptibility’ assay. Cultures were grown up in the appropriate broth medium for 24–48 h, spread-plated (100 μl) onto agar media and discs containing known concentrations of the antibiotics were placed onto the agar. Strains were examined for antibiotic sensitivity after 1–2 days incubation at 37° under anaerobic conditions. Strains were considered sensitive if zones of inhibition of 1 mm or greater were seen.", "values": [
      {"compound": "teicoplanin", "Sensitivity of the lactobacilli to the antibiotic": "Variable sensitivity"},
      {"compound": "CCn1cc(C(=O)O)c(=O)c2ccc(C)nc21", "note": "[nalidixic acid]", "Sensitivity of the lactobacilli to the antibiotic": "resistant"},
      {"compound": "CC1=C(C(=O)O)N2C(=O)[C@@H](NC(=O)[C@H](N)C3=CCC=CC3)[C@H]2SC1", "note": "[cephradine]", "Sensitivity of the lactobacilli to the antibiotic": "sensitive"},
      {"compound": "CN[C@H](CC(C)C)C(=O)N[C@H]1C(=O)N[C@@H](CC(N)=O)C(=O)N[C@H]2C(=O)N[C@H]3C(=O)N[C@H](C(=O)N[C@H](C(=O)O)c4cc(O)cc(O)c4-c4cc3ccc4O)[C@H](O)c3ccc(c(Cl)c3)Oc3cc2cc(c3O[C@@H]2O[C@H](CO)[C@@H](O)[C@H](O)[C@H]2O[C@H]2C[C@](C)(N)[C@H](O)[C@H](C)O2)Oc2ccc(cc2Cl)[C@H]1O", "note": "[vancomycin]", "Sensitivity of the lactobacilli to the antibiotic": "resistant"},
      {"compound": "CCN[C@@H]1C[C@H](N)[C@@H](O[C@H]2OC(CN)=CC[C@H]2N)[C@H](O)[C@H]1O[C@H]1OC[C@](C)(O)[C@H](NC)[C@H]1O", "note": "[netilmicin]", "Sensitivity of the lactobacilli to the antibiotic": "resistant"},
      {"compound": "CC1(C)S[C@@H]2[C@H](NC(=O)[C@H](N)c3ccc(O)cc3)C(=O)N2[C@H]1C(=O)O", "note": "[amoxycillin]", "Sensitivity of the lactobacilli to the antibiotic": "sensitive"},
      {"compound": "CO/N=C(\\C(=O)N[C@@H]1C(=O)N2C(C(=O)O)=CCS[C@H]12)c1csc(N)n1", "note": "[ceftizoxime]", "Sensitivity of the lactobacilli to the antibiotic": "Variable sensitivity"},
      {"compound": "NCC[C@H](O)C(=O)N[C@@H]1C[C@H](N)[C@@H](O[C@H]2O[C@H](CN)[C@@H](O)[C@H](O)[C@H]2O)[C@H](O)[C@H]1O[C@H]1O[C@H](CO)[C@@H](O)[C@H](N)[C@H]1O", "note": "[amikacin]", "Sensitivity of the lactobacilli to the antibiotic": "resistant"},
      {"compound": "gentamicin", "Sensitivity of the lactobacilli to the antibiotic": "resistant"},
      {"compound": "CO/N=C(\\C(=O)N[C@@H]1C(=O)N2C(C(=O)O)=C(CSc3nc(=O)c(=O)[nH]n3C)CS[C@H]12)c1csc(N)n1", "note": "[ceftriaxone]", "Sensitivity of the lactobacilli to the antibiotic": "sensitive"},
      {"compound": "CC1(C)S[C@@H]2[C@H](NC(=O)[C@H](N)c3ccccc3)C(=O)N2[C@H]1C(=O)O", "note": "[ampicillin]", "Sensitivity of the lactobacilli to the antibiotic": "sensitive"},
      {"compound": "O=C(N[C@H](CO)[C@H](O)c1ccc([N+](=O)[O-])cc1)C(Cl)Cl", "note": "[chloramphenicol]", "Sensitivity of the lactobacilli to the antibiotic": "sensitive"},
      {"compound": "COc1cc(Cc2cnc(N)nc2N)cc(OC)c1OC", "note": "[trimethoprim]", "Sensitivity of the lactobacilli to the antibiotic": "resistant"},
      {"compound": "CO/N=C(\\C(=O)N[C@@H]1C(=O)N2C(C(=O)O)=C(COC(C)=O)CS[C@H]12)c1csc(N)n1", "note": "[ceftaxime]", "Sensitivity of the lactobacilli to the antibiotic": "sensitive"},
      {"compound": "O=C(O)c1cn(C2CC2)c2cc(N3CCNCC3)c(F)cc2c1=O", "note": "[ciprofloxacin]", "Sensitivity of the lactobacilli to the antibiotic": "sensitive"}
    ]}
  ]
}
